These are literature values, as cited in patent publication US20060269513A1, “Pheromone composition” (Kiotech Limited, priority 1997, published 2006).

SMILES strings stand for the structures.

This series relates to humans. Conditions: human olfactory threshold.
With `C[C@]12CC[C@@H](O)C[C@@H]1CC[C@@H]1[C@@H]2CC[C@]2(C)C=CC[C@@H]12` [5-alpha-androst-16-en-3-α-ol], the “Threshold concentration for humans (odour)” value (“Threshold concentration” below) was “in the low ppb range”.
As to `CCCCC(C)CCC(=O)O` (stereo not shown) [4-Methyloctanoic acid], the “Threshold concentration” value is “in the region of ppb”.
With `NCCCCN` [putrescine, 1,4-diaminobutane], the “Threshold concentration” value is “in the ppb range”.
As for `CN(C)C` [Trimethylamine], the “Threshold concentration” value is listed as “about 1 ppb”.
